Experimental findings from the METLIN SMRT retention time set (Domingo-Almenara et al. 2019) are described below.

The data set is described as follows: gradient 5% acetonitrile 3 min, to 50% in 2 min, to 85% in 15 min, held 3 min, 100 µL/min. Conditions: column: Zorbax Extend-C18 2.1 x 50 mm; eluents: water / acetonitrile, 0.1% formic acid. Summed up: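 In both positive and negative ionization mode, a quadrupole time-of-flight mass spectrometer coupled to HPLC analyzed pure standards run in mixtures of ~100 molecules. The Zorbax Extend-C18 column (2.1 × 50 mm, 1.8 μm) was operated at 100 μL/min with water and acetonitrile, each containing 0.1% formic acid. The dead volume was 40 μL and the dwell volume 900 μL. Retention time came from adduct peaks that were computationally picked and individually inspected by hand.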
With `Cc1ccsc1CCNC(=O)C1CCN(S(=O)(=O)c2ccc3c(c2)sc(=O)n3C)CC1`, the RP-LC retention time turned out to be 872 s.
`COc1cccc(NC(=O)N2CCN(c3cc(C)nc(Nc4ccc(C)cc4)n3)CC2)c1` returned an RP-LC retention time of 687 s.
As to `O=C(NCc1cc(-c2cc3ccccc3o2)on1)c1ccc2c(c1)OCO2`, the RP-LC retention time turned out to be 856 s.
In the case of `CC(=O)Nc1ccc(C2(C(=O)NCc3cccs3)CCC2)cc1`, the RP-LC retention time came to 710 s.
Molecule `COc1ccc(NC(=O)Nc2nccn(-c3ccc(C(C)C)cc3)c2=O)cc1OC` registered an RP-LC retention time of 1010 s.
Turning to `CCC1CN2C=NC(N3CCN(C(=O)c4ccc(C)s4)CC3)=CC2=N1` (stereo not given), the RP-LC retention time worked out at 632 s.
For the molecule `CCc1ccc(N2CC(c3noc(-c4ccc(Cl)cc4)n3)CC2=O)cc1` (stereo not given), the RP-LC retention time was 1200 s.
`Cc1cc(C)c2c(n1)SCC(=O)N2CC(=O)NCCN(C)C1CCCCC1` came in with an RP-LC retention time of 585 s.
Consider `Cc1ccc(S(=O)(=O)N2CCCCC2c2nncn2C)cc1F` (stereo not given), for which the RP-LC retention time was 736 s.
For `CSc1ccc(NC(=O)Nc2cccc(-c3ccc(N4CCOCC4)nn3)c2)cc1`, the RP-LC retention time was found to be 726 s.
The same measure for `COC(=O)C1=CN(c2ccc(F)cc2)c2ccc(F)cc2S1(=O)=O`: 847 s; for `COC(=O)c1ccc(CSc2nc3ccccc3[nH]2)cc1`: 648 s.
The same measure for `COCn1c(-c2ccc(OC)c(OC)c2)nc2ccccc21`: 573 s; for `O=S(=O)(Nc1ccc(F)cc1)c1cccnc1Nc1ccc(Br)cc1`: 1150 s.
Regarding `COc1cc(COc2cc(N)c(Cl)cc2C(=O)CCC2CCN(CCNS(C)(=O)=O)CC2)cc(OC)c1`, the RP-LC retention time was 761 s.
With `CCN(CC)CCNC(=O)c1sc2ncn(Cc3ccccc3F)c(=O)c2c1C`, the RP-LC retention time came out at 638 s.
`COc1ccc(Cl)cc1NC(=O)c1nc2nc(C)cc(C(F)F)n2n1` gave an RP-LC retention time of 959 s.
The molecule `Cc1ccc(C(=O)Nc2nc(-c3ccc(Br)cc3)cs2)cc1[N+](=O)[O-]` gave an RP-LC retention time of 1210 s.
The molecule `COc1ccc(-c2nnc(-c3cc(S(=O)(=O)N4CCCCCC4)ccc3Cl)o2)cc1` returned an RP-LC retention time of 1150 s.
The molecule `CNC(=O)CSc1nnc(N2CCN(C(=O)Cc3ccc([N+](=O)[O-])cc3)CC2)s1` returned an RP-LC retention time of 618 s.
In turn, `O=C(C1CCCO1)N1CCC2(CC1)NCCc1c2[nH]c2ccccc12` (stereo not given) yielded an RP-LC retention time of 610 s.
Consider `CC1CCN(C(=O)C2=NN(Cc3ccccc3)c3ccccc3S2(=O)=O)CC1`, for which the RP-LC retention time came to 1010 s.
Turning to `COc1c(C(=O)NCc2cc(F)cc(F)c2)sc2ccc(F)cc12`, the RP-LC retention time was 1070 s.
`CCCNC(=O)C1CCN(c2nc3ccsc3c(=O)n2-c2cccc(OC)c2)CC1` registered an RP-LC retention time of 675 s.
As to `Cc1cc(N2CCCC2)nc(N2CCN(C(=O)c3ccc(-c4ccccc4)cc3)CC2)n1`, the RP-LC retention time was determined as 813 s.
The molecule `Cc1ccc(-c2c(C(=O)NCCN3CCOCC3)nc3ccccn23)cc1` registered an RP-LC retention time of 616 s.
The same measure for `CCOC(=O)C1CCCN(C(=O)C2c3cc(OC)c(OC)cc3C(=O)N(C)C2c2cccs2)C1` (stereo not given): 787 s; for `Cc1c(CCOC(=O)c2ccc([N+](=O)[O-])cc2)sc[n+]1Cc1ccccc1`: 909 s; for `COCCCNC(=O)C1CC(=O)N(CCc2c[nH]c3ccc(C)cc23)C1` (stereo not given): 667 s.
In turn, `Cc1cc2[nH]c(C(=O)Nc3cc(F)c(F)c(F)c3)c(CN(C)C)c2s1` came in with an RP-LC retention time of 743 s.
As to `O=C(NCc1ccc(N2CCOCC2)cc1)c1cn2c(n1)CCCC2`, the RP-LC retention time came out at 586 s.
Take `CSc1cccc(NC(=O)CN2C(=O)C3CCCCN3c3ccc(C(=O)N4CCCC4)cc32)c1` (stereo not given): the RP-LC retention time amounted to 869 s.
In the case of `Cc1ccc(NC(=O)c2[nH]c3cc(C)sc3c2CN2CCOCC2)c(Cl)c1`, the RP-LC retention time was 731 s.
As to `Cc1ccc(Nc2c(-c3ccc(C(=O)O)cc3)nc3cnccn23)cc1Cl`, the RP-LC retention time amounted to 790 s.
Molecule `Cc1ccc2c(Nc3ccc(C)c(C)c3)c(C(=O)N3CCCCC3C)cnc2n1` (stereo not given) yielded an RP-LC retention time of 672 s.
The same measure for `O=C(C1CCN(c2ccc(-c3cccs3)nn2)CC1)N1CCN(c2ccccn2)CC1`: 568 s; for `COc1cccc(CNc2cc(-n3nc(C)cc3C)ncn2)c1`: 896 s; for `C=CCn1c(C(=O)NCCc2c[nH]c3ccccc23)cc2cc(S(=O)(=O)N(C)C)ccc21`: 981 s.
Take `CC1CCN(c2nnc(-c3nc(C4CC4)no3)c3ccccc23)CC1`: the RP-LC retention time was determined as 1140 s.
Take `Cc1cc(NC(=O)C2CCN(C(=O)c3cccc(-n4cnnn4)c3)CC2)no1`: the RP-LC retention time was found to be 621 s.
Molecule `CCn1c(=O)sc2cc(S(=O)(=O)N3CCC(C(=O)Nc4ccccc4F)CC3)ccc21` showed an RP-LC retention time of 899 s.
The same measure for `COc1ccc(-c2nc(-c3cn(-c4cccc(F)c4)nn3)no2)c(OC)c1`: 999 s; for `Cc1cc(C)cc(NC(=O)Cn2cccc(-c3nc(-c4ccc(Br)cc4)no3)c2=O)c1`: 1060 s.
On to `CC1=C(c2ccc(C)c(C)c2)S(=O)(=O)N=C1N1CCCN(C(=O)NC2CCCC2)CC1`, for which the RP-LC retention time is 876 s.
In the case of `COc1ccc(OC)c(NC(=O)CSc2nccc(N3CCN(c4cc(C)ccc4C)CC3)n2)c1`, the RP-LC retention time turned out to be 1010 s.
`COc1cc(S(=O)(=O)NC2CC(C)(C)NC(C)(C)C2)ccc1F` yielded an RP-LC retention time of 553 s.
In turn, `COc1ccc(C(=O)NC(C)C(=O)Nc2nc3ccccc3[nH]2)cc1` (stereo not given) came in with an RP-LC retention time of 648 s.
Molecule `COC(=O)c1c(C)[nH]c(C(=O)N2CCC(CC(=O)NCCN3CCCCCC3)CC2)c1C` had an RP-LC retention time of 594 s.
The same measure for `COc1ccc(Cl)cc1NC(=O)CN1C(=O)NC2(CCCCC2)C1=O`: 831 s; for `CCN(CC)c1nc2ccsc2c(=O)n1CCC(=O)N1CCN(c2ccccn2)CC1`: 683 s; for `CCOc1ccc(C(O)CN2CCN(C3CCCCC3)CC2)cc1` (stereo not given): 569 s.
`CCC(C)(C)NC(=O)CN1C(=O)CCCc2cc(S(=O)(=O)N3CCC(C)CC3)ccc21` came in with an RP-LC retention time of 963 s.
For the molecule `O=C(c1ccc(OCC2CCCN2C(=O)C2CCCCC2)cc1)N1CCCC1` (stereo not given), the RP-LC retention time came to 888 s.
On to `CCCc1noc(-c2ccnc(-n3ncc(C(=O)N4CCSCC4)c3C)c2)n1`, for which the RP-LC retention time came to 974 s.
In turn, `CN(C)C[C@@H]1CN(Cc2ccccc2)C[C@H]1NS(=O)(=O)c1cccnc1` displayed an RP-LC retention time of 537 s.
The molecule `COc1ccc(CN2C(=O)[C@H](OC)[C@@H]2C2=CCNCC2)cc1` returned an RP-LC retention time of 576 s.
The same measure for `COc1ccc(CNC(=O)c2c(O)c3cccnc3[nH]c2=O)cc1OC`: 804 s; for `CC(C)(C)C(=O)OCOP(=O)(COCCn1cnc2c(N)ncnc21)OCOC(=O)C(C)(C)C`: 725 s.
`O=C(Nc1ccc(N2CCCCC2=O)cc1)c1cccc2ccccc12` registered an RP-LC retention time of 722 s.
Regarding `CC1CCCN(c2nc(-c3ccc(Cl)cc3)nc3ccccc23)C1` (stereo not given), the RP-LC retention time is 941 s.
The molecule `Cc1cc(C)cc(NC(=O)Cc2nnc(-c3cnccn3)o2)c1` yielded an RP-LC retention time of 729 s.
With `Clc1ccc(-c2nnc(-c3cccnc3N3CCC4(CC3)OCCO4)o2)cc1`, the RP-LC retention time was 1010 s.
`Cc1cc(C(=O)NC2CC2)c2cc(Cl)ccc2n1` displayed an RP-LC retention time of 669 s.
Turning to `Cc1cc(N2CCN(C(=O)c3ccc(Br)o3)CC2)nc(N2CCOCC2)n1`, the RP-LC retention time came out at 599 s.
In the case of `CSc1cccc(NC(=O)Cn2c(-c3cnccn3)nc(C)c(C)c2=O)c1`, the RP-LC retention time was 769 s.
The same measure for `COc1ccccc1-c1cc(C(=O)N2CCN(c3ncccn3)CC2)c2ccccc2n1`: 803 s; for `Cc1cc(C)c(NC(=O)COc2cc(C)nc(N3CCN(c4ccccc4)CC3)n2)c(C)c1`: 942 s.
Molecule `O=C1NC2(CCN(C(=O)Nc3ccc(Cl)cc3)CC2)N=C1c1ccccc1` returned an RP-LC retention time of 829 s.
With `CC(C)CCNC(=O)Cn1ccn2nc(-c3ccc(F)cc3)c(CO)c2c1=O`, the RP-LC retention time amounted to 804 s.
Take `O=C(CCc1c[nH]c2ccccc12)N1CCC(c2nc3ccccc3[nH]2)CC1`: the RP-LC retention time stood at 594 s.
For the molecule `Cc1ccc(S(=O)(=O)N2CCC3(CC2)CC(C)(O)CCO3)cc1F` (stereo not given), the RP-LC retention time was determined as 846 s.
`CCCCn1nc2c(S(=O)(=O)N3CCCCC3)cccn2c1=O` gave an RP-LC retention time of 831 s.
In turn, `CN(CC1CCOCC1)C(=O)Nc1ccccc1F` registered an RP-LC retention time of 720 s.
In turn, `Cc1c(Cl)cccc1Nc1ncccc1C(=O)O` returned an RP-LC retention time of 841 s.
`CN(NC(=O)CC(=O)NN(C)C(=S)c1ccccc1)C(=S)c1ccccc1` displayed an RP-LC retention time of 862 s.
In the case of `O=S(=O)(c1cccc2nsnc12)N1CCCC(Cc2noc(-c3cnccn3)n2)C1` (stereo not given), the RP-LC retention time was determined as 858 s.
As to `CCOC(=O)c1ccc(NC(=O)Cn2nc3c(N4CCSCC4)nccn3c2=O)cc1`, the RP-LC retention time was 828 s.
The molecule `CC(C)NC(=O)c1ccc(OCC2CCCN2C(=O)c2ccoc2)cc1` (stereo not given) had an RP-LC retention time of 747 s.
Take `CCc1ccc(-c2csc(Nc3ccc(Br)cn3)n2)cc1`: the RP-LC retention time came to 1330 s.
In turn, `O=C(CSCc1nc2cccnc2n1C1CCCCC1)NCCc1ccco1` displayed an RP-LC retention time of 883 s.
